Literature values as cited in patent publication US8357679B2, “Hexafluoroisopropanol derivatives” (MSD Oss B.V., priority 2008, dated 2013).

Legend:
[1] = in vivo
[2] = in vivo; remark: listed apart in the source
tumours = details: animal model of prostate cancer
[3] = system: vascular smooth muscle cell; details: in vitro

O=S(=O)(c1ccccc1)N(CC(F)(F)F)c1ccc(C(O)(C(F)(F)F)C(F)(F)F)cc1 [Example T0901317, T0901317]
deposition of β-amyloid [1]: lower deposition of β-amyloid | memory [1]: improve memory | neointima formation following balloon injury [2]: inhibit | progression of tumours (tumours): delayed progression of tumours | vascular smooth muscle cell proliferation [3]: inhibit
